Calls of active or inactive are those of the source. The calls are words filed in the database; no cut-off is given here.
How the values were obtained:
[1] = (§1) Estrogenic activity in human ERalpha expressing MCF7:WS8 cells assessed as stimulation of cell proliferation after 7 days; assay type: functional
[2] = Antiestrogenic activity in human ERalpha expressing MCF7:WS8 cells assessed as inhibition of estradiol-induced proliferation at 1 uM after 7 days; assay type: functional, cell-based
MCF7:WS8 = assay: as §1; assay type: functional

CCC(=C(c1ccc(O)cc1)c1ccc(O)cc1)c1ccc(O)cc1
EC50 ([1]; mcf7:ws8): 1.5 10^-1nmol | inhibition [2]: inactive

CC/C(=C(\c1ccc(O)cc1)c1ccc(OCCNC)cc1)c1ccccc1
Activity (MCF7:WS8): inactive | inhibition [2]: Active

CCC(=C(c1ccc(O)cc1)c1ccc(O)cc1)c1ccccc1
EC50 ([1]; mcf7:ws8): 5 10^-2nmol

CC/C(=C(/c1ccc(O)cc1)c1ccc(OCCN(C)C)cc1)c1ccccc1
Activity (MCF7:WS8): inactive

CCOc1ccc(/C(=C(/CC)c2ccc(O)cc2)c2ccc(O)cc2)cc1
EC50 ([1]; Homo sapiens, MCF7:WS8, 168 h, read-out: EC50): 4 nM | inhibition [2]: inactive

CC/C(=C(\c1ccccc1)c1ccc(O)cc1)c1ccc(O)cc1
EC50 ([1]; mcf7:ws8): 1 10^-1nmol

CC/C(=C(/c1ccccc1)c1ccc(O)cc1)c1ccc(O)cc1
EC50 ([1]; mcf7:ws8): 1 10^-1nmol

C[C@]12CC[C@@H]3c4ccc(O)cc4CC[C@H]3[C@@H]1CC[C@@H]2O [ESTRADIOL]
EC50 ([1]; mcf7:ws8): 0.001 nM

CCC(=C(c1ccc(O)cc1)c1ccc(OCCN(C)C)cc1)c1ccccc1
Activity (MCF7:WS8): inactive | inhibition [2]: Active
